Target: human isoprenylcysteine carboxyl methyltransferase (hIcmt) (Homo sapiens, UniProt O60725)
Assay: vapor diffusion assay
Assay type: biochemical
Conditions: VDA

Sequence of human isoprenylcysteine carboxyl methyltransferase (hIcmt) (O60725 whole entry, the tested form may be a part): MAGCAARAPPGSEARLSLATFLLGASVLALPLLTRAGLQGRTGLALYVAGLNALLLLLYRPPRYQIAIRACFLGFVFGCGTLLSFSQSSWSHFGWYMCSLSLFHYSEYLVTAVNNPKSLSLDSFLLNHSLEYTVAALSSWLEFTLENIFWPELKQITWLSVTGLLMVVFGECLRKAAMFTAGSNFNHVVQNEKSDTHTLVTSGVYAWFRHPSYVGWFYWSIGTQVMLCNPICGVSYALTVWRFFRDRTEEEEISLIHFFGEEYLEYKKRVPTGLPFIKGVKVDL

COC(=O)[C@H](CSC/C=C(\C)CC/C=C(\C)CCC=C(C)C)NS(=O)(=O)c1cccs1 [Compound 10]
hIcmt inhibition in words: remarkably poor hIcmt inhibitor

CC(C)=CCC/C(C)=C/CC/C(C)=C/CSC[C@H](NS(=O)(=O)c1c(C)c(C)c(C)c(C)c1C)C(=O)O [Compound 6a]
hIcmt inhibition in words: poor hIcmt inhibitors
